This is an account of results in patent publication US9765038B2, “Heteroaryl compounds and uses thereof” (Celgene CAR LLC, priority 2010, dated 2017).

SMILES strings stand for the structures.

Assay [1] deals with T1, EGFR T790M/L858R (Homo sapiens (Human), UniProt P00533, L858R/T790M). Kind of assay: Omnia assay, EGFR (T790M/L858R) active enzyme. It counts as biochemical. As to conditions: for Ratio WT/mutant: biochemical IC50, WT EGFR vs EGFR (T790M/L858R); for IC50: [EGFR-T790M/L858R]=2.5 nM, [ATP]=20 uM, 30 min pre-incubation.
Description: (§7) Kinase reactions were started with the addition of 45 μL of the ATP/Tyr-Sox peptide substrate mix and monitored every 71 seconds for 60 minutes at λex360/λem485 in a Synergy^4 plate reader from BioTek (Winooski, Vt.).
For assay [2], the target named is EGFR double mutation L858R/T790M (H1975 cells) (Homo sapiens (Human), UniProt P00533, L858R/T790M). Kind of assay: EGFR signaling immunoblot (phospho-EGFR, phospho-S6) in H1975 cells. In kind it is cell-based. Particulars: for Ratio WT/mutant: signaling EC50, WT EGFR (A431) vs H1975. On the procedure:
(§1) A431 human epidermoid carcinoma, H1975 human NSCLC and HCC827 human NSCLC adenocarcinoma cells were obtained from the American Type Culture Center (Manassas, Va.). A431 cells were grown in DMEM (Invitrogen, Carlsbad, Calif.) supplemented with 10% FBS (HyClone, South Logan, Utah) and 1% Penicillin-Streptomycin (P/S, Lonza, Walkersville, Md.).
(§2) All primary antibodies were obtained from Cell Signaling (Danvers, Mass.) and used at 1:1000. Secondary antibodies were used at 1:10,000. Goat anti-mouse IgG IRDye 800CW antibody was obtained from LiCor Biosciences (Lincoln, Nebr.) and goat anti-rabbit IgG Alexa Fluor 680 was obtained from Invitrogen.
(§3) Cells were grown in 12-well plates (Corning, Coring, N.Y.) to 90% confluence and then incubated in low-serum (0.1% FBS) media for 16-18 hr. […] A431 cells were then stimulated with 50 ng/ml EGF (Peprotech, Rocky Hill, N.J.) for 15 min. After treatment, cell monolayers were washed with cold PBS (Invitrogen) and immediately lysed by scrapping into 60 uL cold Cell Extraction Buffer (Invitrogen) supplemented with Complete Protease inhibitors (Roche, Indianapolis, Ind.) and PhosphoSTOP (Roche) phosphatase inhibitors.
(§4) Phospho-protein signals were quantitated using Odyssey Infrared Imaging (Li-Cor Biosciences).
(§5) Blots were normalized as indicated above. […] Normalized data was fitted using a sigmoidal curve analysis program (Graph Pad Prism version 5) with variable Hill slope to determine the EC50 values.
In general terms: In western blotting, separated proteins are transferred to a membrane and probed.

Assay [3] has as its target EGFR delE746-A750 mutation (HCC827 cells) (Homo sapiens (Human), UniProt P00533, DEL746-750). Kind of assay: EGFR signaling immunoblot in HCC827 cells. In kind it is cell-based. As to conditions: for Ratio WT/mutant: signaling EC50, WT EGFR (A431) vs HCC827. On the procedure: as §1, §2, §3, §4, §5
Another assay addresses pEGFR in H1975 cells (Homo sapiens (Human), UniProt P00533, L858R/T790M). As to conditions: 500 nM for 1 hr, washout up to 24 hr, FIG. 3.
For assay [4], the target named is T1, EGFR T790M/L858R. As to conditions: for covalent modification of the protein: intact protein MS, I-1 within 30 minutes.
Another assay addresses WT EGFR (A431 cells) (Homo sapiens (Human), UniProt P00533). Kind of assay: EGFR signaling immunoblot (phospho-EGFR, phospho-S6) in A431 cells. It counts as cell-based. Particulars: FIG. 2. On the procedure: as §1, §2, §3, §4
Blots were normalized as indicated above. […]

Assay [5] deals with H1975 cells (EGFR L858R/T790M). The experiment in a line: Cell proliferation (CellTiter Glo), H1975 cells. It counts as cell-based, human. As to conditions: GI50, WT EGFR (A431) vs H1975. As for the experimental part:
as §1
(§6) Growth inhibition (GI50) values were determined by Graph Pad Prism.
(ATP-based viability assays read luminescence as a measure of living cells.)

Assay [6] concerns HCC827 cells (EGFR delE746-A750). The experiment in a line: Cell proliferation (CellTiter Glo), HCC827 cells. It counts as cell-based, human. As to conditions: GI50, WT EGFR (A431) vs HCC827. As for the experimental part: as §1, §6
The target in a further assay is EGFR-WT (Homo sapiens (Human), UniProt P00533). The experiment in a line: Omnia assay, EGFR (WT) active enzyme. In kind it is biochemical. Particulars: [EGFR-WT]=5 nM, [ATP]=15 uM, 30 min pre-incubation.
Where [7] appears, read: 10-fold excess of compound, MALDI, FIG. 4.

Description for EGFR-WT: as §7

For the compound `C=CC(=O)Nc1cccc(Nc2nc(Nc3ccccc3OC)ncc2C(F)(F)F)c1` [Compound I-1, N-(3-(2-(2-methoxyphenylamino)-5-(trifluoromethyl)pyrimidin-4-ylamino)phenyl)acrylamide], the “Ratio WT/mutant” value (on EGFR T790M/L858R [1]; in [2]; in assay [3]) was over 50 in each case. In addition, the “duration of action after washout (pEGFR)” value at pEGFR in H1975 cells was “prolonged duration of action”. For the same compound, the mass shift on EGFR T790M/L858R [4] (setting [7]) was determined as 488 Da. The “mass shift relative to compound mass” value at EGFR T790M/L858R [4] (setting [7]) is 113%. In addition, at EGFR T790M/L858R [4], the “covalent modification of the protein” value is given as “completely modifies”.
As for `C=CC(=O)Nc1cccc(Oc2nc(Nc3ccccc3OC)ncc2C(F)(F)F)c1` [Compound I-2, N-(3-(2-(2-methoxyphenylamino)-5-(trifluoromethyl)pyrimidin-4-yloxy)phenyl)acrylamide], the “duration of action after washout (pEGFR)” value at pEGFR in H1975 cells is “prolonged duration of action”. Moreover, the “covalent modification of the protein” value at EGFR T790M/L858R [4] is listed as “covalently modify the protein”.
For `C=CC(=O)Nc1cccc(Nc2nc(Nc3ccc(OC)c(OC)c3OC)ncc2Br)c1` [Compound I-5, N-(3-(5-bromo-2-(2,3,4-trimethoxyphenylamino)pyrimidin-4-ylamino)phenyl)acrylamide], the “Ratio WT/mutant” value on EGFR T790M/L858R [1] is over 45; in assay [2], over 50.
Consider `C=CC(=O)Nc1cccc(Oc2nc(Nc3cccc(OC)c3OC)ncc2Br)c1` [Compound I-6, N-(3-(5-bromo-2-(2,3-dimethoxyphenylamino)pyrimidin-4-yloxy)phenyl)acrylamide], for which, at EGFR T790M/L858R [1], the “Ratio WT/mutant” value is given as over 45.
Consider `C=CC(=O)Nc1cccc(Oc2nc(Nc3ccc(OC)c(OC)c3OC)ncc2Cl)c1` [Compound I-7, N-(3-(5-chloro-2-(2,3,4-trimethoxyphenylamino)pyrimidin-4-yloxy)phenyl)acrylamide], for which the “Ratio WT/mutant” value at EGFR T790M/L858R [1] is listed as over 25; in [2], over 50; in assay [5], over 10; in assay [6], over 15. The WT-EGFR sparing result on WT EGFR (A431 cells) is recorded as “completely WT-EGFR sparing”. Also, in assay [2] (H1975 cells, FIG. 1 and FIG. 2), the “inhibition of pEGFR and downstream S6 ribosomal protein” value is “inhibiting pEGFR and its downstream target S6 Ribosomal protein”. Further, the “covalent modification of the protein” value at EGFR T790M/L858R [4] is “covalently modify the protein”.
Turning to `C=CC(=O)Nc1cccc(Oc2nc(Nc3ccc(OC)c(OC)c3OC)ncc2C(F)(F)F)c1` [Compound I-10, N-(3-(5-(trifluoromethyl)-2-(2,3,4-trimethoxyphenylamino)pyrimidin-4-yloxy)phenyl)acrylamide], the “Ratio WT/mutant” value (at EGFR T790M/L858R [1]; in assay [2]) was over 50 each time.
With `C=CC(=O)Nc1cccc(Nc2nc(Nc3ccc(OC)c(OC)c3OC)ncc2C(F)(F)F)c1` [Compound I-11, N-(3-(5-(trifluoromethyl)-2-(2,3,4-trimethoxyphenylamino)pyrimidin-4-ylamino)phenyl)acrylamide], the “Ratio WT/mutant” value is reported as over 25 on EGFR T790M/L858R [1], over 50 in [2] and over 5 in [3].
Take `C=CC(=O)Nc1cccc(Nc2nc(Nc3cccc(OC)c3OC)ncc2Br)c1` [Compound I-14, N-(3-(5-bromo-2-(2,3-dimethoxyphenylamino)pyrimidin-4-ylamino)phenyl)acrylamide]: the IC50 at EGFR-WT lay in the range of 300 to 1000 nM. Further, on EGFR T790M/L858R [1], the IC50 is 1 to 10 nM and the “Ratio WT/mutant” value was over 50.
Consider `C=CC(=O)Nc1cccc(Oc2nc(Nc3cccc(OC)c3OC)ncc2Cl)c1` [Compound I-17, N-(3-(5-chloro-2-(2,3-dimethoxyphenylamino)pyrimidin-4-yloxy)phenyl)acrylamide], for which the results for the IC50 on EGFR-WT and against EGFR T790M/L858R [1] were 300 to 1000 nM and 10 to 100 nM, respectively. Moreover, the “Ratio WT/mutant” value on EGFR T790M/L858R [1] is recorded as over 35. The same compound showed an EC50 in assay [3] (HCC827 cells, signaling, 1 hr) of 500 to 1000 nM.
`C=CC(=O)Nc1cccc(Nc2nc(Nc3ccccc3OC)ncc2Cl)c1` [Compound I-18, N-(3-(5-chloro-2-(2-methoxyphenylamino)pyrimidin-4-ylamino)phenyl)acrylamide]: the “Ratio WT/mutant” value at EGFR T790M/L858R [1] is given as over 30.
The same measure, in the same setting: to `C=CC(=O)Nc1cccc(Oc2nc(Nc3ccccc3OC)ncc2F)c1` [Compound I-19, N-(3-(5-fluoro-2-(2-methoxyphenylamino)pyrimidin-4-yloxy)phenyl)acrylamide] belongs over 10.
Same read-out and setting: to `C=CC(=O)Nc1cccc(Nc2nc(Nc3ccc(OC)cc3OC)ncc2Br)c1` [Compound I-20, N-(3-(5-bromo-2-(2,4-dimethoxyphenylamino)pyrimidin-4-ylamino)phenyl)acrylamide] belongs over 45.
As for `C=CC(=O)Nc1cccc(Nc2nc(Nc3ccc(OC)cc3OC)ncc2Cl)c1` [Compound I-21, N-(3-(5-chloro-2-(2,4-dimethoxyphenylamino)pyrimidin-4-ylamino)phenyl)acrylamide], the entries for the “Ratio WT/mutant” value (on EGFR T790M/L858R [1]; in [2]) were over 50 and over 5, respectively.

The term IC50 denotes the point on the concentration scale where inhibition reaches its midpoint. One may read the EC50 as the concentration giving half of the maximal effect.
